From patent publication US4863951A, “Pharmacologically active amino-5,6,7,8-tetrahydronaphtho [2,3-B] furan compounds” (ADIR Et Cie, priority 1987, dated 1989)
Structures can show the parent of a compound that is named as a salt.

Legend:
[1] = test system: apomorphine-induced rearing-up; assay: Antagonism of apomorphine-induced rearing-up behavior in mice; assay type: in vivo; conditions: apomorphine 0.75 mg.kg^-1 s.c.; for change in vivo at 2.5 mg/kg / change in vivo at 5 mg/kg / change in vivo at 10 mg/kg / change in vivo at 20 mg/kg: Mus musculus, ip; for change in vivo at 2.5 mg/kg: read-out: % inhibition of rearing-up, mice, i.p. dose 2.5 mg.kg^-1; for change in vivo at 5 mg/kg: read-out: % inhibition of rearing-up, mice, i.p. dose 5 mg.kg^-1; for change in vivo at 10 mg/kg: read-out: % inhibition of rearing-up, mice, i.p. dose 10 mg.kg^-1; for change in vivo at 20 mg/kg: read-out: % inhibition of rearing-up, mice, i.p. dose 20 mg.kg^-1; for % inhibition of rearing-up: mice, hydrochloride
Description: Studied in the test of antagonism of apomorphine-induced rearing-up following the subcutaneous administration of a dose of 0.75 mg.kg^-1 of this substance in mice, the compounds of general formula I act in a clear-cut manner at doses greater than or equal to 2.5 mg.kg^-1 (i.p.). The same results are observed when the compounds of general formula I are administered orally at a dose of 20 mg.kg^-1. The activity of the compounds was assessed according to the method described by Protais P, Costentin J and Schwartz J. C. in Psychopharmacology (1976), 50, p. 1-6.
(s=significant difference, p<0.05).

[2] = test system: apomorphine-induced stereotypy; assay: Antagonism of apomorphine-induced stereotypy in rats; assay type: in vivo; conditions: apomorphine 1.5 mg.kg^-1 i.p., 30 minutes; for % ISS (inhibition (-) or potentiation (+) of the stereotypy score): rats, hydrochloride; for change in vivo at 10 mg/kg: read-out: % ISS (inhibition (-) or potentiation (+) of the stereotypy score), rats, i.p. dose 10 mg.kg^-1
Description: The inhibitory activity of the compounds of the invention with respect to apomorphine- or amphetamine-induced stereotypy in rats was assessed using the scale of scoring of stereotyped movements described by Quinton R. M. and Halliwell G. in Nature (1963), 200, p. 178-179.
Apomorphine or amphetamine was administered to the animals intraperitoneally at a dose of 1.5 mg.kg^-1. The percentage inhibition (-) or potentiation (+) of the stereotypy score (% ISS) shown in Tables IV and V for apomorphine corresponds to a measurement time of 30 minutes. In contrast, the percentage inhibition of the stereotypy score shown in Table VI for amphetamine corresponds to a measurement time of 3 hours. […]

[3] = test system: apomorphine-induced hypothermia; assay: Antagonism with respect to apomorphine-induced hypothermia in mice; assay type: in vivo; conditions: apomorphine 1 mg.kg^-1 s.c., after 2 hours; for change in vivo at 10 mg/kg / change in vivo at 20 mg/kg / change in vivo at 2.5 mg/kg / change in vivo at 5 mg/kg: Mus musculus, ip, 2 h; for change in vivo at 10 mg/kg: read-out: % antagonism of hypothermia, mice, i.p. dose 10; for change in vivo at 20 mg/kg: read-out: % antagonism of hypothermia, mice, i.p. dose 20; for change in vivo at 2.5 mg/kg: read-out: % antagonism of hypothermia, mice, i.p. dose 2.5; for change in vivo at 5 mg/kg: read-out: % antagonism of hypothermia, mice, i.p. dose 5; for % antagonism of hypothermia: mice, hydrochloride
Description: Testing for an antagonism with respect to apomorphine-induced hypothermia in mice was performed according to the method described by CHERMAT R. and PONCELET M. in J. Pharmac. (1983), 14, No. 1, p. 93-97. The dose of apomorphine administered subcutaneously was 1 mg.kg^-1. Tables VII and VIII show the percentage antagonism of the hypothermia observed after 2 hours.

[4] = test system: isolation-induced aggression; assay: Antiaggressive effects: isolation-induced aggression in mice; assay type: in vivo; conditions: isolated mice, i.p.
Excerpt: (§1) The antiaggressive effects of the compounds of the invention were investigated by two methods, one of them testing for an inhibition of aggressive behavior in peviously isolated mice (Yen C. Y., Stanger A. L., and Millman N, Arch. Int. Pharmacodyn. Therap. (1959), 123, p. 179-185), and the other in isolated and bulbectomized rats (Garattini S. and Sigg E. B. "Aggressive Behaviour" p. 47-55 Ed. Excerpta Medica Found., Amsterdam, 1969).
(§2) (Tables IX and X, s=significant, p<0.05).

[5] = test system: aggression of isolated, bulbectomized rats; assay: Antiaggressive effects: aggression of isolated, bulbectomized rats; assay type: in vivo; conditions: i.p.
Excerpt: as §1, §2

[6] = test system: reserpine-induced hypothermia; assay: Antagonism of reserpine-induced hypothermia; assay type: in vivo, Swiss CD male mice; conditions: mice, reserpine 2.5 mg.kg^-1 i.p.
Description: (§3) The antidepressant effects of the compounds of the invention were investigated by assessing the antagonism of reserpine-induced hypothermia and the antagonism of the ponto-geniculo-occipital waves induced by the compound Ro4-1284 in cats.
The study is carried out on Swiss CD male mice (27-28 g). After distribution into groups of 10 animals each, reserpine is injected intraperitoneally at a dose of 2.5 mg.kg^-1. Three hours later, the compounds undergoing trial are administered intraperitoneally. The rectal temperature of the animals is measured one hour and two hours after the second treatment, and compared with the initial temperature To of these same animals, measured immediately before the administration of the compounds undergoing trial.

[7] = test system: ponto-geniculo-occipital (P.G.O.) waves induced by Ro4-1284; assay: Antagonism of the ponto-geniculo-occipital (P.G.O.) waves induced by Ro4-1284; assay type: in vivo; conditions: Felis catus, iv, cats, i.v., read-out: ED50 (effective dose inhibiting by 50% the number of P.G.O. waves)
Description: as §3
This study was performed according to the method of Ruch-Monachon M. A., Jalfre M. and Haefely W. described in Arch. Int. Pharm. Therap., (1976), 219, No. 2, p. 251-346, and it enabled the effective dose (i.v) inhibiting by 50% (ED50) the number of P.G.O waves to be assessed.

[8] = test system: interoceptive stimulus of apomorphine; assay: Drug discrimination in rats (generalization with apomorphine); assay type: in vivo; conditions: 2.5 mg.kg^-1 i.p., 30 minutes before test, hydrochloride
Description: Rats were trained to discriminate between the effect of the interoceptive stimulus of apomorphine (0.2 mg.kg^-1 i.p.) and that of physiological saline, according to a principle described by Colpaert F. in "Drug discrimination application in C.N.S. Pharmacology" Ed. Elsevier Biomedical 1982, Amsterdam. […]
Under the experimental conditions employed, the behavior shown by the animals coincides with that noted in the case of administration of apomorphine.

[9] = 10 mg.kg^-1 i.p., hydrochloride
[10] = 20 mg.kg^-1 i.p., hydrochloride

Row | Compound | change in vivo at 2.5 mg/kg [1] [%] | change in vivo at 5 mg/kg [1] [%] | % ISS (inhibition (-) or potentiation (+) of the stereotypy score) ([2]; i.p. dose 10 mg.kg^-1) | % ISS (inhibition (-) or potentiation (+) of the stereotypy score) ([2]; i.p. dose 20 mg.kg^-1) | change in vivo at 10 mg/kg [3] [%] | change in vivo at 20 mg/kg [3] [%] | % of pairs of mice showing no sign of fighting ([4]; 5 mg.kg^-1, hydrochloride) [%] | % of pairs of mice showing no sign of fighting ([4]; 10 mg.kg^-1, hydrochloride) [%] | % of rats rendered non-aggressive ([5]; 10 mg.kg^-1, hydrochloride) [%] | % inhibition of hypothermia [6, 9] | % inhibition of hypothermia [6, 10] | change in vivo at 10 mg/kg [1] [%] | change in vivo at 20 mg/kg [1] [%] | change in vivo at 10 mg/kg ([2]; Rattus norvegicus, ip, 0.5 h) [%] | change in vivo at 2.5 mg/kg [3] [%] | change in vivo at 5 mg/kg [3] [%] | % of pairs of mice showing no sign of fighting ([4]; 2.5 mg.kg^-1) [%] | % of pairs of mice showing no sign of fighting ([4]; 5 mg.kg^-1) [%] | % of pairs of mice showing no sign of fighting ([4]; 10 mg.kg^-1) [%] | % of rats rendered non-aggressive ([5]; 2.5 mg.kg^-1) [%] | other results
1 | CN(C)C1CCc2cc3c(cc2C1)OCC3 (stereo not drawn) [Example 40, d-7-(N,N-Dimethylamino)-2,3,5,6,7,8-hexahydronaphtho[2,3,-b]furan hydrochloride] | -75 | -100 | -61% | -67% | -44 | -73 | 22 | 50 | 42 | +14% | +14% |  |  |  |  |  |  |  |  |  | 
2 | CN(C)C1CCc2cc3c(cc2C1)OCC3 (racemic) [Example 6, dl-7-(N,N-Dimethylamino)-2,3,5,6,7,8-hexahydronaphtho[2,3-b]furan hydrochloride] | -17 | -54 |  |  | -25 | -48 |  |  |  |  |  | -94 | -100 | -48 | 6 | -6 | 40 | 44 | 78 | 30 | change in vivo at 20 mg/kg ([2]; Rattus norvegicus, ip, 0.5 h, read-out: % ISS (inhibition (-) or potentiation (+) of the stereotypy score), rats, i.p. dose 20 mg.kg^-1): -58%; % inhibition of hypothermia ([6]; 2.5 mg.kg^-1 i.p.): -1%; % inhibition of hypothermia ([6]; 5 mg.kg^-1 i.p.): +1%; % inhibition of hypothermia ([6]; 10 mg.kg^-1 i.p.): -24%; % inhibition of hypothermia ([6]; 20 mg.kg^-1 i.p.): -20%; ED50 [7]: 0.498 mg/kg
3 | CNC1CCc2cc3c(cc2C1)OCC3 (stereo not drawn) [Example 38, d-7-(N-Methylamino)-2,3,5,6,7,8-hexahydronaphtho[2,3-b]furan hydrochloride] | -76 | -100 |  |  | -112 | -119 | 70 |  |  | -21% |  |  |  | -54 | -48 | -91 |  |  |  | 37 | change in vivo at 5 mg/kg ([2]; Rattus norvegicus, ip, 0.5 h, read-out: % ISS (inhibition (-) or potentiation (+) of the stereotypy score), rats, i.p. dose 5 mg.kg^-1): -60%; % of rats rendered non-aggressive ([5]; 5 mg.kg^-1, hydrochloride): 75%; % inhibition of hypothermia ([6]; 2.5 mg.kg^-1 i.p., hydrochloride): -28%; % inhibition of hypothermia ([6]; 5 mg.kg^-1 i.p., hydrochloride): -35%
4 | CN(C)C1CCc2cc3c(cc2C1)OCC3 (stereo not drawn) [Example 41, l-7-(N,N-Dimethylamino)-2,3,5,6,7,8-hexahydronaphtho[2,3-b]furan hydrochloride] |  |  | +11% | +3% |  |  | 66 | 90 | 50 | +13% | +29% |  |  |  |  |  |  |  |  |  | 
5 | CNC1CCc2cc3c(cc2C1)OCC3 (racemic) [Example 9, dl-7-(N-Methylamino)-2,3,5,6,7,8-hexahydronaphtho[2,3-b]furan hydrochloride] | -46 | -65 |  |  | -86 | -84 |  |  |  |  |  | -100 | -100 |  | -39 | -67 | 67 | 56 | 89 | 27 | % of rats rendered non-aggressive ([5]; 5 mg.kg^-1): 58%; % inhibition of hypothermia ([6]; 2.5 mg.kg^-1 i.p.): -8%; % inhibition of hypothermia ([6]; 5 mg.kg^-1 i.p.): +37%; % inhibition of hypothermia ([6]; 10 mg.kg^-1 i.p.): +16%; % inhibition of hypothermia ([6]; 20 mg.kg^-1 i.p.): +11%; ED50 [7]: 0.173 mg/kg
6 | NC1CCc2cc3c(cc2C1)OCC3 (stereo not drawn) [Example 4, l-7-Amino-2,3,5,6,7,8-hexahydronaphtho[2,3-b]furan hydrochloride] |  |  |  |  |  |  | 44 |  |  |  |  |  |  |  |  |  |  |  |  |  | % inhibition of rearing-up ([1]; i.p. dose 10 mg.kg^-1): -24%; % inhibition of rearing-up ([1]; i.p. dose 20 mg.kg^-1): -86%; % antagonism of hypothermia ([3]; i.p. dose 2.5): -8%; % antagonism of hypothermia ([3]; i.p. dose 5): -3%; % antagonism of hypothermia ([3]; i.p. dose 10): -11%; % antagonism of hypothermia ([3]; i.p. dose 20): -19%; % of pairs of mice showing no sign of fighting ([4]; 2.5 mg.kg^-1, hydrochloride): 22%; % of rats rendered non-aggressive ([5]; 2.5 mg.kg^-1, hydrochloride): 12%; % of animals which generalize [8]: 70%; Number of animals showing the effect of generalization with apomorphine [8]: 7/10
